{
  "source": "patent US20170127675A1",
  "about": "“COMPOSITIONS AND METHODS FOR CONTROLLING INSECT POPULATIONS” (OLFACTOR LABORATORIES, INC., priority 2014, published 2017)",
  "test_system": "mosquitoes",
  "test": "Attractive toxic sugar assay",
  "format": "in vivo",
  "details": "after three days, dead / total mosquitoes",
  "method": "Experiments were carried out to examine the lethality of compounds of the present invention using an attractive toxic sugar assay. These experiments were carried out in 6 groups according to Table 3. […] The experimental room was conditioned with 75% humidity or higher. Experimental cages were prepared by adding paper towels to the cage bottoms. Cages of mosquitoes were collected (about 25 males and about 25 females per cage), one cage for each sugar bait being tested with an extra cage to use as a sucrose-only control. […] Feeding cups were prepared with 10 ml of experimental sugar bait to a cup. In some experiments, blue food coloring was added to verify sugar consumption in the frass. Bait cups were mixed by gentle swirling and wicks were added through the top. Control bait cups received about 10 ml of prepared 10% sucrose solution (except where otherwise indicated). Heat, humidity as well as humidifier water content were checked each day. Cages were examined daily for dead mosquitoes. The number of dead mosquitoes per gender was recorded each day. Frass content was examined daily and compared with that of sucrose control. After three days, final observations were made and live mosquitoes were removed from each experimental cage and placed into cups for examination under the dissecting scope to determine whether or not female mosquitoes had fed. Once feeding females had been determined for populations from each cage, cups were frozen and discarded. Dead mosquitoes in each cage were counted and the sex of each determined. The relative frass content per cage was compared to that of the sucrose control cage. […] Percent (%) lethality was calculated for each treatment group by dividing the total (male and female) number of dead mosquitoes by the total number of mosquitoes for each.",
  "key": {"[1]": {"details": "sugar conc. 0.10%, about 25 male and 25 female mosquitoes per cage"}},
  "note": "Counter-ions that a name gives are not always drawn.",
  "data": [
    {"compound": "n-acetyl allolactosamine", "values": [
      {"measurement": "% Lethality", "setting": "[1]", "value": 44, "unit": "%"}
    ]},
    {"compound": "sucrose octasulfate aluminum complex", "values": [
      {"measurement": "% Lethality", "setting": "[1]", "value": 39.6, "unit": "%"}
    ]},
    {"compound": "CC1(C)[C@@H](O[C@H]2O[C@H](C(=O)O)[C@@H](O)[C@H](O)[C@H]2O[C@@H]2O[C@H](C(=O)O)[C@@H](O)[C@H](O)[C@H]2O)CC[C@]2(C)[C@H]3C(=O)C=C4[C@@H]5C[C@@](C)(C(=O)O)CC[C@]5(C)CC[C@@]4(C)[C@]3(C)CC[C@@H]12", "note": "[glycyrrhizic acid ammonium salt]", "values": [
      {"measurement": "% Lethality", "setting": "[1]", "value": 68.3, "unit": "%"}
    ]},
    {"compound": "OC[C@H]1O[C@H](OCC2O[C@@H](O)[C@H](O)[C@@H](O)[C@@H]2O)[C@H](O)[C@@H](O)[C@H]1O", "note": "(stereo partly drawn) [melibiose]", "values": [
      {"measurement": "% Lethality", "setting": "[1]", "value": 64.4, "unit": "%"}
    ]},
    {"compound": "C[C@@H]1O[C@@H](OC[C@H]2O[C@@H](Oc3c(-c4ccc(O)c(O)c4)oc4cc(O)cc(O)c4c3=O)[C@H](O)[C@@H](O)[C@@H]2O)[C@H](O)[C@H](O)[C@H]1O", "note": "[rutin hydrate]", "values": [
      {"measurement": "% Lethality", "setting": "[1]", "value": 58, "unit": "%"},
      {"measurement": "% Lethality", "setting": "sugar conc. 0.50%", "value": 45, "unit": "%"}
    ]},
    {"compound": "O=C(CO)[C@@H](O[C@H]1O[C@H](CO)[C@@H](O)[C@H](O)[C@H]1O)[C@H](O)[C@H](O)CO", "note": "[D-(+)-turanose]", "values": [
      {"measurement": "% Lethality", "setting": "[1]", "value": 66, "unit": "%"},
      {"measurement": "% Lethality", "setting": "sugar conc. 0.50%", "value": 29, "unit": "%"}
    ]},
    {"compound": "O.O.O.O.O.OC[C@H]1O[C@H](OC[C@H]2O[C@H](O[C@]3(CO)O[C@H](CO)[C@@H](O)[C@@H]3O)[C@H](O)[C@@H](O)[C@@H]2O)[C@H](O)[C@@H](O)[C@H]1O", "note": "[D-(+)-raffinose pentahydrate]", "values": [
      {"measurement": "% Lethality", "setting": "[1]", "value": 38.8, "unit": "%"}
    ]},
    {"compound": "OC[C@H]1O[C@@H](O[C@H]2O[C@H](CO)[C@@H](O)[C@H](O)[C@H]2O)[C@H](O)[C@@H](O)[C@@H]1O", "note": "[alpha,beta-trehalose]", "values": [
      {"measurement": "% Lethality", "setting": "[1]", "value": 56.2, "unit": "%"}
    ]},
    {"compound": "CO[C@@H]1O[C@H](CO)[C@H](O)[C@H](O)[C@H]1O", "note": "[methyl-beta-D-galactopyranoside]", "values": [
      {"measurement": "% Lethality", "setting": "[1]", "value": 65.9, "unit": "%"},
      {"measurement": "% Lethality", "setting": "sugar conc. 0.50%", "value": 43, "unit": "%"}
    ]}
  ]
}
